Results on 13 compounds are retold here after ChEMBL document CHEMBL1136141, “2-Phenyl-5,6-dihydro-2H-thieno[3,2-c]pyrazol-3-ol derivatives as new inhibitors of bacterial cell wall biosynthesis” (Bioorg Med Chem Lett, 2003).

A short description of data set [1]: Minimum inhibitory activity in presence of 4% bovine serum albumin against Streptococcus pneumoniae GC1894 (PRSP). Type of data set: functional.
The test system of data set [2] is Escherichia coli. Nature of the data set: Minimum inhibitory activity against Escherichia coli GC 4560. Format: functional.
The subject of data set [3] is Escherichia coli. Nature of the data set: Minimum inhibitory activity against Escherichia coli GC 4559. Format: functional.
The test system of data set [4] is Enterococcus faecalis. Nature of the data set: Minimum inhibitory activity against Enterococcus faecalis GC 2242 (VRE). Type of data set: functional.
Data set [5] has as its system Staphylococcus aureus. Nature of the data set: Minimum inhibitory activity against Staphylococcus aureus GC 1131 (MRSA). Format: functional.
Data set [6] deals with Staphylococcus aureus. Nature of the data set: Minimum inhibitory activity against Staphylococcus aureus GC 4543 (MSSA). Format: functional.
Data set [7] addresses T1, UDP-N-acetylmuramoylalanine--D-glutamate ligase (Staphylococcus aureus, UniProt P0A091).
T1 sequence (P0A091 whole entry): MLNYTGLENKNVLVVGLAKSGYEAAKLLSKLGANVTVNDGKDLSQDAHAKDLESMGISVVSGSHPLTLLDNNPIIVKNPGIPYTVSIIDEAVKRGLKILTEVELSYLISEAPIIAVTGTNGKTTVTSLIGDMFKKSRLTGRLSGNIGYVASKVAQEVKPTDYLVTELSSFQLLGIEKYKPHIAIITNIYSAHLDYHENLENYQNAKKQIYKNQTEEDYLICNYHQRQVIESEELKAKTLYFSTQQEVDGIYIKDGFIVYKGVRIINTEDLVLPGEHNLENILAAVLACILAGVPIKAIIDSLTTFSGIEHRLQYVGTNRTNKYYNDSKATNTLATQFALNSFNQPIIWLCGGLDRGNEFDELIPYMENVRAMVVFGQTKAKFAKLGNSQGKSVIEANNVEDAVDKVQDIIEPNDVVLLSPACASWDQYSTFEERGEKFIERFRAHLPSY
Nature of the data set: In vitro inhibitory activity against Staphylococcus aureus UDP-N-acetylmuramoyl-L-alanyl-D-glutamate synthetase.

The nature of data set [8]: Minimum inhibitory activity against Streptococcus pneumoniae GC1894 (PRSP). Type of data set: functional.
Data set [9] relates to Staphylococcus aureus. The experiment in a line: Minimum inhibitory activity against Staphylococcus aureus GC 2216 (ATCC). Type of data set: functional.
Data set [10] in a line: Partition coefficient (logP). Type of data set: physicochemical. Conditions: octanol/water.
For data set [11], the target named is T2, UDP-N-acetylenolpyruvoylglucosamine reductase (Staphylococcus aureus, UniProt P61431).
T2 sequence (P61431 whole entry): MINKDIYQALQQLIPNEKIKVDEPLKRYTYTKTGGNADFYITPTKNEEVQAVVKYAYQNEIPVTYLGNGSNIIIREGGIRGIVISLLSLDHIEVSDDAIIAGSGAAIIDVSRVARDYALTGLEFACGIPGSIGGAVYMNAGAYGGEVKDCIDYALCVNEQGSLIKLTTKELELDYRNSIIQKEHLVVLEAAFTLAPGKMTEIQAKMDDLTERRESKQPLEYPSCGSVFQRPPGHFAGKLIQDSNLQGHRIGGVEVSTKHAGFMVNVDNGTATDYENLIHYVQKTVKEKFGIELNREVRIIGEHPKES
The experiment in a line: In vitro inhibitory activity against Staphylococcus aureus UDP-N-acetylmuramate dehydrogenase.

Data set [12] deals with Enterococcus faecalis. Nature of the data set: Minimum inhibitory activity against Enterococcus faecalis GC 4555 (ATCC). Format: functional.
Data set [13] in a line: Minimum inhibitory activity against MSCNS GC 646. Format: functional. Conditions: Staphylococcus.
Data set [14] deals with T3, UDP-N-acetylmuramate--L-alanine ligase (Staphylococcus aureus, UniProt O31211).
T3 sequence (O31211 whole entry): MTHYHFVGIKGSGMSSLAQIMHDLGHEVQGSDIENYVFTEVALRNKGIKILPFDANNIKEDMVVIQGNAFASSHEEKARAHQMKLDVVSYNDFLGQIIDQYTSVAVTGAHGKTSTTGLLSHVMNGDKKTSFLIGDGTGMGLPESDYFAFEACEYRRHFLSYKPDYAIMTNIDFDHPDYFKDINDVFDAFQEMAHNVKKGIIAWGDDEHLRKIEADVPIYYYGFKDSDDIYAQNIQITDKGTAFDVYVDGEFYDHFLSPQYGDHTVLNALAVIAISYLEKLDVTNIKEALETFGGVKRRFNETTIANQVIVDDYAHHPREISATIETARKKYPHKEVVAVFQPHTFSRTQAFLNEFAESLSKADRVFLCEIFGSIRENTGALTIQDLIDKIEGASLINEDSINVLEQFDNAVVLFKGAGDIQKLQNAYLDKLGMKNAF
The experiment in a line: In vitro inhibitory activity against Staphylococcus aureus UDP-N-acetylmuramoyl-L-alanine synthetase.

Data set [15] deals with Bacteria. Nature of the data set: Minimum inhibitory activity against gram negative bacteria. Type of data set: functional.

Each structure is given as a SMILES string. Values after ≈ are worked out from the molar mass of the structure shown.

Take `Oc1c2c(nn1-c1ccc(Cl)cc1)CCS2`: the MIC in data set [1] was more than 128 µg/mL; in data set [2], more than 128 µg/mL; in [3], more than 128 µg/mL; in [4], 16 µg/mL (≈ 63.3 µM); in data set [5] it was 16 µg/mL (≈ 63.3 µM); in data set [6] it was 2 µg/mL (≈ 7.91 µM). Also, the MIC in data set [8] turned out to be 1 µg/mL (≈ 3.96 µM); in data set [9] it was 2 µg/mL (≈ 7.91 µM); in data set [12] it was 16 µg/mL (≈ 63.3 µM); in [13], 4 µg/mL (≈ 15.8 µM). The results for the IC50 in data set [7], in data set [11] and in data set [14] were 45.5 µM, 28.1 µM and 40 µM, respectively. In [10], this compound had a logP of 3.06.

`O=[N+]([O-])c1ccc(-n2nc3c(c2O)CSCC3)cc1`: the MIC in data set [15] is more than 128 µg/mL. In addition, the IC50 in data set [11] is more than 90.2 µM.

Compound `Oc1c2c(nn1-c1ccc(Cl)c(Cl)c1)CSC2` registered an MIC in [15] of 32 µg/mL (≈ 111 µM). This compound gave an IC50 in data set [11] of more than 87.1 µM.

In turn, `Oc1c2c(nn1-c1ccc(Cl)cc1)COC2` displayed an MIC in [15] of more than 128 µg/mL. Further, the IC50 in [11] was more than 106 µM.

In turn, `Oc1c2c(nn1-c1ccc(Cl)cc1)CSC2` came in with an MIC in data set [15] of more than 128 µg/mL. In addition, the IC50 in [11] was 831 µM.

On to `[O-][S+]1CCc2nn(-c3ccc(Cl)c(Cl)c3)c(O)c21` (stereo not drawn), for which, in data set [15], the minimum inhibitory concentration (MIC) is more than 128 µg/mL. Moreover, in data set [10], the logP was found to be 2.01. For the same compound, the IC50 in [11] was 66 µM.

Turning to `Oc1c2c(nn1-c1ccc(Cl)c(Cl)c1)CCCC2`, the MIC in data set [15] is more than 128 µg/mL. The compound further returned an IC50 in [11] of more than 88.3 µM.

Regarding `O=[N+]([O-])c1cccc(-n2nc3c(c2O)SCC3)c1`, the MIC in data set [1] was more than 128 µg/mL; in data set [2] it was more than 128 µg/mL; in data set [3], more than 128 µg/mL; in [4], 32 µg/mL (≈ 122 µM); in data set [5], 32 µg/mL (≈ 122 µM); in [6], 32 µg/mL (≈ 122 µM). Also, the MIC in data set [8] worked out at 4 µg/mL (≈ 15.2 µM); in data set [9], 16 µg/mL (≈ 60.8 µM); in data set [12], 64 µg/mL (≈ 243 µM); in data set [13], 32 µg/mL (≈ 122 µM). In addition, the IC50 in data set [7] was 34.6 µM; in data set [11], 23.5 µM; in data set [14], 87.7 µM.

With `Oc1c2c(nn1-c1ccc(C(F)(F)F)cc1)CCS2`, the MIC in data set [1] was more than 128 µg/mL; in [2], 128 µg/mL (≈ 447 µM); in [3] it was more than 128 µg/mL; in data set [4], 8 µg/mL (≈ 27.9 µM); in data set [5], 8 µg/mL (≈ 27.9 µM); in data set [6], 1 µg/mL (≈ 3.49 µM). In addition, the MIC stood at 0.5 µg/mL (≈ 1.75 µM) in data set [8], 2 µg/mL (≈ 6.99 µM) in [9], 16 µg/mL (≈ 55.9 µM) in [12] and 4 µg/mL (≈ 14 µM) in [13]. Moreover, the figures for the IC50 in data set [7], in [11] and in [14] were 43 µM, 38.4 µM and more than 87.3 µM, respectively.

On to `NC(=O)c1cccc(-n2nc3c(c2O)SCC3)c1`, for which the MIC is more than 128 µg/mL in data set [1]; 128 µg/mL (≈ 490 µM) in data set [2]; more than 128 µg/mL in data set [3]; 32 µg/mL (≈ 122 µM) in [4]; 128 µg/mL (≈ 490 µM) in data set [5]; 64 µg/mL (≈ 245 µM) in data set [6]. The MIC in data set [8] was 8 µg/mL (≈ 30.6 µM); in data set [9] it was 128 µg/mL (≈ 490 µM); in [12], 64 µg/mL (≈ 245 µM); in data set [13], more than 128 µg/mL. For the same compound, the IC50 in data set [7] is 47.8 µM; in data set [11] it was more than 95.7 µM; in data set [14], more than 95.7 µM. This compound also registered a logP in data set [10] of 1.41.

`Oc1c2c(nn1-c1ccc(Cl)c(Cl)c1)CCS2`: the MIC in data set [1] is more than 128 µg/mL; in [2], 128 µg/mL (≈ 446 µM); in data set [3] it was more than 128 µg/mL; in data set [4] it was 64 µg/mL (≈ 223 µM); in [5], 32 µg/mL (≈ 111 µM); in data set [6], 8 µg/mL (≈ 27.9 µM). In addition, the MIC in [8] is 4 µg/mL (≈ 13.9 µM); in data set [9], 8 µg/mL (≈ 27.9 µM); in data set [12], 128 µg/mL (≈ 446 µM); in data set [13] it was 16 µg/mL (≈ 55.7 µM). Also, the IC50 in data set [7] was 48.8 µM; in data set [11] it was 38.3 µM; in [14], 24.4 µM. For the same compound, the logP in data set [10] is 3.62.

As to `N#Cc1ccc(-n2nc3c(c2O)SCC3)cc1`, the MIC is more than 128 µg/mL in [1]; 64 µg/mL (≈ 263 µM) in [2]; more than 128 µg/mL in data set [3]; 8 µg/mL (≈ 32.9 µM) in data set [4]; 32 µg/mL (≈ 132 µM) in [5]; 16 µg/mL (≈ 65.8 µM) in [6]. In addition, the MIC in data set [8] was found to be 4 µg/mL (≈ 16.4 µM); in [9], 8 µg/mL (≈ 32.9 µM); in [12] it was 8 µg/mL (≈ 32.9 µM); in data set [13], 4 µg/mL (≈ 16.4 µM). Besides, the IC50 in data set [7] was 49.3 µM; in [11], more than 103 µM; in [14], more than 103 µM. Also, the logP in data set [10] was determined as 2.53.

As for `CC(C)(C)c1ccc(-n2nc3c(c2O)SCC3)cc1`, the minimal inhibitory concentration (MIC) is more than 128 µg/mL in data set [1]; more than 128 µg/mL in data set [2]; more than 128 µg/mL in [3]; more than 128 µg/mL in [4]; more than 128 µg/mL in data set [5]; 128 µg/mL (≈ 466 µM) in [6]. Also, the minimal inhibitory concentration (MIC) in [8] is 64 µg/mL (≈ 233 µM); in [9] it was more than 128 µg/mL; in [12], more than 128 µg/mL; in [13], more than 128 µg/mL. For the same compound, the IC50 in data set [7], in data set [11] and in data set [14] was more than 91.1 µM each time.
